Reference: patent publication US20230174530A1, “N-(PHENYLAMINOCARBONYL) TETRAHYDRO-ISOQUINOLINES AND RELATED COMPOUNDS AS MODULATORS OF GPR65” (PATHIOS THERAPEUTICS LIMITED, priority 2020, published 2023)

Target: T1, human recombinant GPR65 (Homo sapiens, UniProt Q8IYL9)
T1 construct: host or cells: 1321N1 human astrocytoma cells (1321N1-hrGPR65)
Assay: Human GPR65 cAMP HTRF antagonist assay
Assay type: cell-based
Settings: 1321N1-hrGPR65 cells stimulated at assay pH 7.2; suppression of cAMP rise; read-out: hGPR65 IC50
Protocol: Human GPR65 Cyclic Adenosine Monophosphate (cAMP) Homogeneous Time Resolved Fluorescence (HTRF) Antagonist Assay Procedure
IC50 data was obtained by the following procedure:
1321N1 human astrocytoma cells stably expressing human recombinant GPR65 (1321N1-hrGPR65 cells, EuroscreenFast) were cultured according to the vendor's instructions.
Compounds were tested for their ability to antagonise GPR65, through measuring the concentration of cytoplasmic cAMP following treatment of the cells at a pH of 7.2 to activate GPR65 signalling and addition of the compound to be tested. The extent to which the expected rise in cAMP concentration upon GPR65 activation was suppressed by the added compound is indicative of its potency. The assay was carried out according to EuroscreenFast assay methodology as follows.
On the day of the assay, test compounds were added to 384-well, low volume, white microtiter plates by acoustic dispensing. KRH buffer (5 mM KCl, 1.25 mM MgSO4, 124 mM NaCl, 25 mM HEPES, 13.3 mM Glucose, 1.25 mM KH2PO4 and 1.45 mM CaCl2) was adjusted to pH 6.5, pH 7.6 and pH 8.4 by adding NaOH. 1321N1-hGPR65 cells were rapidly thawed and diluted in KRH, pH 7.6 prior to centrifugation at 300×g for 5 min and resuspension in assay buffer (KRH, pH 7.6, supplemented with 1 mM 3-isobutyl-1-methylxanthine (IBMX) and 200 μM ethylenediaminetetraacetic acid (EDTA)). Cells were added to assay plates at a density of 2,000 cells per well in a volume of 5 μl. Assay plates were briefly centrifuged at 100×g and then incubated at room temperature for 30 min. Cells were stimulated by the addition of 5 μL KRH, pH 6.5, to achieve an assay pH of 7.2, while control wells received 5 μl KRH, pH 8.4 to achieve an assay pH of 7.9. Assay plates were briefly centrifuged at 100×g and then incubated at room temperature for 30 min.
Accumulation of cAMP was detected by cAMP HTRF kit (Cisbio). d2-labeled cAMP and cryptate-labeled anti-cAMP antibody in Lysis and Detection Buffer (Cisbio) were added to assay plates, and the plates were incubated at room temperature for 1 h. HTRF measurements were performed using a Pherastar FSX instrument. Acceptor and donor emission signals were measured at 665 nm and 620 nm, respectively, and HTRF ratios were calculated as signal665 nm/signal620 nm×10^4. Data were normalised to high and low control values and fitted with 4-parameter logistic regression to determine hGPR65 IC50 values for the test compounds, which are shown in Table 1.

T1 sequence (Q8IYL9 whole entry): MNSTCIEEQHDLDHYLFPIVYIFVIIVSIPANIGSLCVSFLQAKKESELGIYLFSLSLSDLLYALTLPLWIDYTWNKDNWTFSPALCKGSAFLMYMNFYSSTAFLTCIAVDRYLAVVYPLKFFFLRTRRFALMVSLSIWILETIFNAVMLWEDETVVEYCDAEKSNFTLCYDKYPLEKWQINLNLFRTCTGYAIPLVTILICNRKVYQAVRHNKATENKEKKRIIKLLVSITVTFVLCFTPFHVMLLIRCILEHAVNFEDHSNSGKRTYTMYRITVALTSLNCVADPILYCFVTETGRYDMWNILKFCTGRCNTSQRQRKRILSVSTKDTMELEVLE

SMILES	IC50
COc1cccc2c1CN(C(=O)Nc1ccc(Cl)c(Cl)c1)CC2 [Compound 64, N-(3,4-Dichlorophenyl)-8-methoxy-3,4-dihydroisoquinoline-2(1H)-carboxamide]	0.5 to 5 µM
O=C(Nc1ccc(C(F)(F)F)c(Cl)c1)N1CCc2cc(F)c(F)cc2C1 [Compound 108, N-(3-Chloro-4-(trifluoromethyl)phenyl)-6,7-difluoro-3,4-dihydroisoquinoline-2(1H)-carboxamide]	< 0.5 µM
COc1ccc2c(c1)CCN(C(=O)Nc1ccc(Cl)c(C(F)(F)F)c1)C2 [Compound 66, N-(4-Chloro-3-(trifluoromethyl)phenyl)-6-methoxy-3,4-dihydroisoquinoline-2(1H)-carboxamide]	0.5 to 5 µM
O=C(Nc1ccc(C(F)(F)F)c(Cl)c1)N1CCc2ccnc(Cl)c2C1 [Compound 97, 8-Chloro-N-(3-chloro-4-(trifluoromethyl)phenyl)-3,4-dihydro-2,7-naphthyridine-2(1H)-carboxamide]	> 5 µM
O=C(Nc1ccc(Cl)c(C(F)(F)F)c1)N1CCc2ccncc2C1 [Compound 16, N-(4-Chloro-3-(trifluoromethyl)phenyl)-3,4-dihydro-2,7-naphthyridine-2(1H)-carboxamide]	0.5 to 5 µM
O=C(Nc1ccc(Cl)c(Cl)c1)N1CCc2cc3cncn3cc2C1 [Compound 113, N-(3,4-Dichlorophenyl)-8,9-dihydroimidazo[1,5-b][2,7]naphthyridine-7(6H)-carboxamide]	< 0.5 µM
O=C(Nc1ccc(C(F)(F)F)c(Cl)c1)N1CCc2ncccc2C1 [Compound 22, N-(3-Chloro-4-(trifluoromethyl)phenyl)-7,8-dihydro-1,6-naphthyridine-6(5H)-carboxamide]	> 5 µM
N#Cc1cccc2c1CN(C(=O)Nc1ccc(C(F)(F)F)c(Cl)c1)CC2 [Compound 132, N-(3-Chloro-4-(trifluoromethyl)phenyl)-8-cyano-3,4-dihydroisoquinoline-2(1H)-carboxamide]	0.5 to 5 µM
N#Cc1ccc2c(c1)CCN(C(=O)Nc1ccc(C(F)(F)F)c(Cl)c1)C2 [Compound 39, N-(3-Chloro-4-(trifluoromethyl)phenyl)-6-cyano-3,4-dihydroisoquinoline-2(1H)-carboxamide]	< 0.5 µM
Cc1ccc2c(c1)CCN(C(=O)Nc1ccc(C(F)(F)F)c(Cl)c1)C2 [Compound 136, N-(3-Chloro-4-(trifluoromethyl)phenyl)-6-methyl-3,4-dihydroisoquinoline-2(1H)-carboxamide]	0.5 to 5 µM
Cc1ccc2c(c1)CN(C(=O)Nc1ccc(Cl)c(Cl)c1)CC2 [Compound 34, N-(3,4-Dichlorophenyl)-7-methyl-3,4-dihydroisoquinoline-2(1H)-carboxamide]	> 5 µM
Nc1ccc2c(n1)CCN(C(=O)Nc1ccc(Cl)c(Cl)c1)C2 [Compound 122, 2-Amino-N-(3,4-dichlorophenyl)-7,8-dihydro-1,6-naphthyridine-6(5H)-carboxamide]	> 5 µM
O=C(Nc1ccc(C(F)(F)F)c(Cl)c1)N1CCc2cccnc2C1 [Compound 19, N-(3-Chloro-4-(trifluoromethyl)phenyl)-5,8-dihydro-1,7-naphthyridine-7(6H)-carboxamide]	0.5 to 5 µM
O=C(Nc1ccc(C(F)(F)F)c(Cl)c1)N1CCc2c(cccc2C(F)(F)F)C1 [Compound 70, N-(3-Chloro-4-(trifluoromethyl)phenyl)-5-(trifluoromethyl)-3,4-dihydroisoquinoline-2(1H)-carboxamide]	> 5 µM
O=C(Nc1ccc(Cl)c(Cl)c1)N1CCc2cccnc2C1 [Compound 18, N-(3,4-Dichlorophenyl)-5,8-dihydro-1,7-naphthyridine-7(6H)-carboxamide]	> 5 µM
O=C(Nc1ccc(C(F)(F)F)c(Cl)c1)N1CCc2ccc(F)cc2C1 [Compound 33, N-(3-Chloro-4-(trifluoromethyl)phenyl)-7-fluoro-3,4-dihydroisoquinoline-2(1H)-carboxamide]	< 0.5 µM
O=C(Nc1ccc(Cl)c(Cl)c1)N1CCc2cc3nccn3cc2C1 [Compound 110, N-(3,4-Dichlorophenyl)-8,9-dihydroimidazo[1,2-b][2,7]naphthyridine-7(6H)-carboxamide]	> 5 µM

SMILES	IC50
O=C(Nc1ccc(Cl)c(Cl)c1)N1CCc2cccc(Cl)c2C1 [Compound 139, 8-Chloro-N-(3,4-dichlorophenyl)-3,4-dihydroisoquinoline-2(1H)-carboxamide]	0.5 to 5 µM
COc1ccc2c(c1)CN(C(=O)Nc1ccc(C(F)(F)F)c(Cl)c1)CC2 [Compound 63, N-(3-Chloro-4-(trifluoromethyl)phenyl)-7-methoxy-3,4-dihydroisoquinoline-2(1H)-carboxamide]	0.5 to 5 µM
Cc1noc(-c2ccc3c(c2)CCN(C(=O)Nc2ccc(Cl)c(Cl)c2)C3)n1 [Compound 140, N-(3,4-Dichlorophenyl)-6-(3-methyl-1,2,4-oxadiazol-5-yl)-3,4-dihydroisoquinoline-2(1H)-carboxamide]	< 0.5 µM
O=C(Nc1ccc(Cl)c(Cl)c1)N1CCc2cn3ccnc3cc2C1 [Compound 115, N-(3,4-Dichlorophenyl)-6,7-dihydroimidazo[1,2-b][2,6]naphthyridine-8(9H)-carboxamide]	> 5 µM
O=C(Nc1ccc(Cl)c(Cl)c1)N1CCc2ncccc2C1 [Compound 20, N-(3,4-Dichlorophenyl)-7,8-dihydro-1,6-naphthyridine-6(5H)-carboxamide]	> 5 µM
O=C(Nc1ccc(C(F)(F)F)c(Cl)c1)N1CCc2ccccc2C1 [Compound 10, N-(3-Chloro-4-(trifluoromethyl)phenyl)-3,4-dihydroisoquinoline-2(1H)-carboxamide]	0.5 to 5 µM
O=C(Nc1ccc(Cl)c(C(F)(F)F)c1)N1CCc2ncncc2C1 [Compound 5, N-(4-Chloro-3-(trifluoromethyl)phenyl)-7,8-dihydropyrido[4,3-d]pyrimidine-6(5H)-carboxamide]	0.5 to 5 µM
O=C(Nc1ccc(Cl)c(Cl)c1)N1CCc2cnccc2C1 [Compound 12, N-(3,4-Dichlorophenyl)-3,4-dihydro-2,6-naphthyridine-2(1H)-carboxamide]	0.5 to 5 µM
Nc1cc2c(cn1)CCN(C(=O)Nc1ccc(C(F)(F)F)c(Cl)c1)C2 [Compound 83, 7-Amino-N-(3-chloro-4-(trifluoromethyl)phenyl)-3,4-dihydro-2,6-naphthyridine-2(1H)-carboxamide]	< 0.5 µM
O=C(Nc1ccc(Cl)c(Cl)c1)N1CCc2cc(=O)[nH]cc2C1 [Compound 76, N-(3,4-Dichlorophenyl)-6-oxo-3,4,6,7-tetrahydro-2,7-naphthyridine-2(1H)-carboxamide]	< 0.5 µM
Cc1cccc2c1CN(C(=O)Nc1ccc(C(F)(F)F)c(Cl)c1)CC2 [Compound 29, N-(3-Chloro-4-(trifluoromethyl)phenyl)-8-methyl-3,4-dihydroisoquinoline-2(1H)-carboxamide]	0.5 to 5 µM
O=C(Nc1ccc(Cl)c(Cl)c1)N1CCc2cccc(F)c2C1 [Compound 45, N-(3,4-Dichlorophenyl)-8-fluoro-3,4-dihydroisoquinoline-2(1H)-carboxamide]	0.5 to 5 µM
O=C(Nc1ccc(C(F)(F)F)c(Cl)c1)N1CCc2cc(Cl)ncc2C1 [Compound 91, 6-Chloro-N-(3-chloro-4-(trifluoromethyl)phenyl)-3,4-dihydro-2,7-naphthyridine-2(1H)-carboxamide]	0.5 to 5 µM
O=C(Nc1ccc(C(F)(F)F)c(Cl)c1)N1CCc2cc(=O)[nH]cc2C1 [Compound 74, N-(3-Chloro-4-(trifluoromethyl)phenyl)-6-oxo-3,4,6,7-tetrahydro-2,7-naphthyridine-2(1H)-carboxamide]	< 0.5 µM
Nc1nccc2c1CCN(C(=O)Nc1ccc(Cl)c(Cl)c1)C2 [Compound 119, 5-Amino-N-(3,4-dichlorophenyl)-3,4-dihydro-2,6-naphthyridine-2(1H)-carboxamide]	> 5 µM
O=C(Nc1ccc(C(F)(F)F)c(Cl)c1)N1CCc2cncnc2C1 [Compound 9, N-(3-Chloro-4-(trifluoromethyl)phenyl)-5,8-dihydropyrido[3,4-d]pyrimidine-7(6H)-carboxamide]	> 5 µM
O=C(Nc1ccc(C(F)(F)F)c(Cl)c1)N1CCc2c[nH]c(=O)cc2C1 [Compound 100, N-(3-Chloro-4-(trifluoromethyl)phenyl)-7-oxo-3,4,6,7-tetrahydro-2,6-naphthyridine-2(1H)-carboxamide]	> 5 µM
